The subject of the experiment is rat mast cells. Nature of the experiment: Inhibitory action on degranulation of mast cells (histamine release from rat mast cells). Format: cell-based. The conditions noted are these: Mast cell; rat peritoneal mast cells, anti-IgE antibody, 37° C. As to the method: Inhibitory action on degranulation of mast cells
(A) Preparation of mast cells
30 ml of mast cell buffer solution (150 mM sodium chloride, 3.7 mM potassium chloride, 3.0 mM disodium hydrogen phosphate, 3.5 mM sodium dihydrogen phosphate, 5.6 mM dextrose, pH 7.0) was injected into the abdomen of a rat(SD, male, 8 to 10 week-old), and intra peritoneal cavity cells were recovered and centrifuged at 800 rpm for 5 minutes, and then the abdomen infiltration cells were recovered as precipitates. The precipitated cells were further washed twice with the mast cell buffer solution, suspended again at a predetermined density, and used in the objective experiment.
(B) Inhibitory action on degranulation of mast cells (inhibitory action on histamine release from rat mast cells)
The mast cells obtained in the procedure in (A) above were suspended at 1×10^5 cells in the mast cell buffer solution and kept at 37° C. 2 μl of each drug and 200 μl of the cell suspension were added into a 1.5 ml test tube previously kept at 37° C. and incubated at 37° C. for 10 minutes. After incubation, 2 μl anti-IgE antibody (BETHYL Lab. Inc.) was added to it and further incubated at 37° C. for 15 minutes. After the end of the reaction, the reaction mixture was immediately cooled on ice and centrifuged at 4° C. at 4000 rpm for 5 minutes, and then the supernatant was stored. Histamine in the supernatant was modified with ortho-phthalaldehyde and measured by high performance liquid chromatography to determine 50% inhibitory concentration (IC50: μM).
The compound `Nc1cnc(-c2ccccc2)n(CC(=O)NC(Cc2ccccc2)C(=O)C(=O)CCCc2ccccc2)c1=O` (stereo not shown) [Compound 40] gave a half-inhibitory concentration (IC50) of 1.8 µM.
The result for `CCCCC(=O)C(=O)C(Cc1ccccc1)NC(=O)Cn1c(-c2ccccc2)ncc(N)c1=O` (stereo not shown) [Compound 44] reads 14 µM; that for `CC(=O)C(=O)C(Cc1cccc(F)c1)NC(=O)Cn1c(-c2ccccc2)ncc(N)c1=O` (stereo not shown) [Compound 52, 2-(5-Amino-6-oxo-2-phenyl-1,6-dihydropyrimidine-1-yl)-N-{1-(3-fluorophenyl)methyl-2,3-dioxo}butylacetamide], 50 µM.
Compound `CCOC(=O)CCCC(=O)C(=O)C(Cc1cccc(F)c1)NC(=O)Cn1c(-c2ccccc2)ncc(N)c1=O` (stereo not shown) [Compound 54] gave an IC50 of 35 µM.

For orientation: IC50 means the concentration that gives 50% inhibition. Read a low IC50 as greater potency.

The values above are taken from US6271238A, “Acetamide derivatives and protease inhibitors” (Nippon Kayaku Kabushiki Kaisha, priority 1996, dated 2001).
